This is an account of results in patent publication US20210087548A1, “Compositions and Methods for Inducing Protein Function” (priority 2017, published 2021).

Experiment [1] concerns human VEGFA locus. Type of experiment: cell-based. The conditions noted are these: for VEGF concentration, empty vector control cells in respective drug (average): HEK293A, 48 hrs, average of 3 independent experiments.
The test system of experiment [2] is HCV genotype 1a NS3 Wt. The conditions noted are these: in vitro replication assay; cited from earlier work.
The test system of experiment [3] is HCV genotype 1a NS3 V36M. The conditions noted are these: in vitro replication assay; cited from earlier work.
Experiment [4] concerns HCV genotype 1a NS3 T54A. The conditions noted are these: in vitro replication assay; cited from earlier work.
For experiment [5], the system named is HCV genotype 1a NS3 S122G. Conditions: in vitro replication assay; cited from earlier work.
The test system of experiment [6] is HCV genotype 1a NS3 F43L. The conditions noted are these: in vitro replication assay; cited from earlier work.
The subject of experiment [7] is HCV genotype 1a NS3 Q80K. Conditions: in vitro replication assay; cited from earlier work.
Experiment [8] relates to HCV genotype 1a NS3 S122R. Conditions: in vitro replication assay; cited from earlier work.
For experiment [9], the system named is HCV genotype 1a NS3 D168Y. The conditions noted are these: in vitro replication assay; cited from earlier work.

A word on the EC50: it is the midpoint of the concentration-response curve. For the molecule `C=C[C@@H]1C[C@]1(NC(=O)[C@@H]1C[C@@H](Oc2ncc(OC)c3ccc(Cl)cc23)CN1C(=O)[C@@H](NC(=O)OC(C)(C)C)C(C)(C)C)C(=O)NS(=O)(=O)C1CC1` [ASV, asunaprevir], in [1] (HEK293A co-transfected with ZF-StaPL(ti)-tdRFP-KRAB and ZF-StaPL(ai)-YFP-VPR), the “VEGF amounts in the culture medium” value is reported as “increased”. In addition, the “VEGF concentration, empty vector control cells in respective drug (average)” value in experiment [1] is given as 673 pg/mL. For the same molecule, the EC50 was 0.76 nM in experiment [2]; 1.5 nM in [3]; 0.33 nM in experiment [4]; 0.65 nM in experiment [5]; 2.7 nM in [6]; 2.5 nM in experiment [7]. Further, the concentration giving a half-maximal response (EC50) in experiment [8] is 2.6 nM; in experiment [9], 473 nM.
Consider `CCC[C@H](NC(=O)[C@@H]1[C@H]2CCC[C@H]2CN1C(=O)[C@@H](NC(=O)[C@@H](NC(=O)c1cnccn1)C1CCCCC1)C(C)(C)C)C(=O)C(=O)NC1CC1` [TPV, telaprevir], for which the “VEGF concentration, empty vector control cells in respective drug (average)” value in [1] is 930 pg/mL.
